This test deals with Serotonin (5-HT) receptor. Nature of the test: Competitive antagonist activity at 5-HT serotonin receptor in Sprague-Dawley rat stomach fundus model assessed as inhibition of 5-HT-induced contractile response.

In general, pA2 refers to a measure of antagonist potency on a negative log scale. On to `COc1ccc(OC)c(CCCN(C)C)c1`, for which the pA2 is reported as 5.45.
